Here are results for 52 compounds from PubChem BioAssay AID1996.

The structures appear in SMILES notation. Converted amounts (≈) assume the structure as drawn.

What is called kinetic solubility is the concentration staying in solution when a stock, usually in DMSO, is diluted into the medium.

For this data set the following is noted: buffer; pH 7.4; 200.0 µM.
On to `CC(=O)N(C)Cc1ccc(C(=O)CSc2nnc(C3CC3)n2C2CC2)cc1`, for which the kinetic solubility is > 57.7 µg/mL.
`CCOc1ccc(CO/N=C/c2c(C)[nH]c(=O)[nH]c2=O)cc1` yielded a solubility (kinetic) of 5.8 µg/mL (≈ 19.1 µM).
Then `Cc1noc(C)c1C(=O)N1CCN(c2ccccc2O)CC1`, with 44.9 µg/mL (≈ 149 µM).
The same measure for `O=C(COC(=O)c1cccc(F)c1)NC1CC1`: > 35.6 µg/mL.
The same measure for `CCN=c1sc(C(=O)Nc2ccccc2)c(C)n1CC`: 43 µg/mL (≈ 149 µM); for `CCNC(=S)Nc1ccc(NC(=O)c2ccccc2O)cc1`: 21.9 µg/mL (≈ 69.4 µM); for `CCc1sc(C(=O)Nc2ccc(OC)c(S(=O)(=O)N3CCOCC3)c2)cc1C`: 22.9 µg/mL (≈ 53.9 µM).
`Nc1ccc(C(=O)Nc2ccccc2N)cc1`: the solubility (kinetic) was > 34.1 µg/mL.
Then `Cc1ccccc1NC(=O)c1ccc(S(=O)(=O)N2CCCC2)cc1`, with > 51.7 µg/mL; and `CC(C)Cc1nc2oc3c(Cl)ncnc3c2c2c1CCCC2`, with < 0.2 µg/mL; and `O=C(Oc1ccccc1N1CCOCC1)c1ccccc1`, with 26.3 µg/mL (≈ 92.8 µM).
Then `Cc1c(C(=O)N/N=C/c2ccoc2)cccc1[N+](=O)[O-]`, with > 41 µg/mL; and `COc1cccc(NC(=O)N2CCCC2C(=O)NC2CCCC2)c1` (configuration not stated), with 45.9 µg/mL (≈ 138 µM).
`CCN(Cc1ccccc1)C(=O)COc1ccccc1`: the solubility (kinetic) was > 40.4 µg/mL.
As to `COc1cc(/C=C/c2ccc3cccc(O)c3n2)ccc1O`, the solubility (kinetic) was 4.8 µg/mL (≈ 16.4 µM).
Then `Cc1ccc(C(=O)ONC(=O)c2ccc(Cl)cc2)cc1[N+](=O)[O-]`, with 46.8 µg/mL (≈ 140 µM); and `O=[N+]([O-])c1ccc(C(=S)N2CCCC2)cc1`, with > 35.4 µg/mL.
Compound `COc1ccc(OCC(O)CNC(=O)Nc2cccc3ccccc23)cc1` (configuration not stated) had a solubility (kinetic) of 4.3 µg/mL (≈ 11.7 µM).
In turn, `S=c1[nH]c2ccccc2n1Cc1ccccc1` showed a solubility (kinetic) of 4.8 µg/mL (≈ 20 µM).
Compound `CC(=O)Nc1ccc2oc(-c3ccccc3)nc2c1` returned a solubility (kinetic) of 13.1 µg/mL (≈ 51.9 µM).
Then `O=C(/C=C/c1c(F)cccc1Cl)Nc1cccnc1`, with 13.7 µg/mL (≈ 49.5 µM); and `Cc1ccc(NC(=O)COC(=O)CCNS(=O)(=O)c2c(Cl)cccc2Cl)cc1`, with 48.5 µg/mL (≈ 109 µM).
Then `Cl.NCCCCCC(=O)Nc1ccncc1`, with > 36.6 µg/mL; and `CC1(C)CC(=O)C(C=NCCN2CCN(C(=O)CCl)CC2)=C(O)C1`, with > 53.4 µg/mL.
Then `CCSC(=O)NC1CCCCC1`, with 14.4 µg/mL (≈ 76.9 µM).
Compound `O=C(NCCOc1ccccc1F)c1cc([N+](=O)[O-])ccc1N1CCOCC1` displayed a solubility (kinetic) of 55.5 µg/mL (≈ 143 µM). This solubility kinetic is about 3.9-fold higher than that of the compound before.
The same measure for `COc1ccc(Cl)cc1NC(=O)CCN1CCOCC1`: > 44.8 µg/mL; for `CCC(C(=O)NCc1ccccc1OC)c1ccccc1` (configuration not stated): 32.6 µg/mL (≈ 115 µM); for `NS(=O)(=O)c1ccc(NC(=O)Nc2ccccc2)cc1`: 42.8 µg/mL (≈ 147 µM).
The same measure for `O=c1[nH]c(=O)n(Cc2ccco2)c(O)c1C=NCCN1CCNCC1`: > 52.1 µg/mL; for `COC(=O)c1ccc(NC(=O)c2ccc3nccnc3c2)cc1`: 3.5 µg/mL (≈ 11.4 µM); for `N=c1oc2ccc3ccccc3c2cc1C(N)=S`: 7.2 µg/mL (≈ 28.3 µM).
Then `N#Cc1cccc(CN2C=NS(=O)(=O)c3ccccc32)c1`, with 42.2 µg/mL (≈ 142 µM); and `CCOC(=O)C1CCCN(/C=C2\SC(=S)N(CC)C2=O)C1` (configuration not stated), with 39.4 µg/mL (≈ 120 µM).
`Cc1cccc(NS(=O)(=O)c2ccc3oc(=O)ccc3c2)c1C` showed a kinetic solubility of 44.8 µg/mL (≈ 136 µM). The solubility kinetic values of the last two compounds are within 1.5-fold of each other.
The same measure for `CC(C)(C)c1ccc(/C=C/C(=O)NCCCn2ccnc2)cc1`: 46.1 µg/mL (≈ 148 µM).
The same measure for `CN1CCN(c2nc(-c3ccccc3Cl)nc3ccccc23)CC1`: > 50.8 µg/mL; for `CCc1ccc(C(=O)NC(=S)NCc2cccnc2)cc1`: 39.9 µg/mL (≈ 133 µM).
Then `CCOC(=O)c1cc(C)n(-c2ccccc2)c1C`, with 3 µg/mL (≈ 12.3 µM); and `COc1ccc(C(=O)COC(=O)c2ccc(N(C)C)cc2)cc1`, with < 0.7 µg/mL; and `Cc1noc(C)c1C(=O)NCc1ccccc1Br`, with 44.6 µg/mL (≈ 144 µM).
As for `O=C(NCc1ccccn1)Nc1ccccc1Cl`, the kinetic solubility was > 39.3 µg/mL.
Then `O=C(N/N=C/c1cccnc1)c1ccco1`, with > 32.3 µg/mL; and `Cc1ccc(C(=O)Nc2cccc3[nH]c(C(F)(F)F)nc23)cc1`, with 3.3 µg/mL (≈ 10.3 µM).
The same measure for `CS(=O)(=O)N1CCCC(C(=O)Nc2ccc(F)cc2)C1` (configuration not stated): > 45.1 µg/mL.
The same measure for `CC(C)(C)OC(=O)C(C)(C)Sc1nnc(N)s1`: > 41.3 µg/mL; for `COc1ccc(CC(=O)NC2CCCCCC2)c(OC)c1`: 37.6 µg/mL (≈ 129 µM); for `CCn1cc(CN(C)S(=O)(=O)c2cccc([N+](=O)[O-])c2)cn1`: > 48.7 µg/mL.
With `Cc1cnc(C(=O)OCC(=O)Nc2ccc(C)c(S(=O)(=O)N3CCOCC3)c2)cn1`, the kinetic solubility is > 65.2 µg/mL.
Then `CO/N=C1\CCn2c1c(C)c1ccccc12`, with 0.8 µg/mL (≈ 3.73 µM); and `Cc1ccc(/C(O)=C/C(=O)C(=O)NC23CC4CC(CC(C4)C2)C3)cc1`, with 8.4 µg/mL (≈ 24.7 µM).
The same measure for `CCC(=O)N1CCN(c2ccc(NC(=O)c3ccc4ccccc4c3)cc2)CC1`: < 0.3 µg/mL.
